Values after ≈ are worked out from the molar mass of the structure shown. Positions of bridges follow the written chain, without caps; N, C: chain ends. Non-standard residues stand in square brackets, D forms with d. Residues, ends and D or L forms follow the SMILES beside them. *: point of attachment. Ethyl(2-butanoyloxy) = CCCC(=O)OCC*; Ethyl(2-propionyloxy) = CCC(=O)OCC*; Ethyl(2-OPiv) = CC(C)(C)C(=O)OCC*; Dab = NCC[C@H](N)C(=O)O; X10 = CCC(C)CC(=O)OCC*
Legend:
[1] = system: E. coli ATCC 25922; format: cell-based, Escherichia coli; details: ATCC 25922
Source text: (§1) All 81 compounds prepared in Examples 2 and 3 underwent screening against a panel of Gram-negative bacterium to assess their ability to inhibit bacterial growth. […] The median value is presented.

[2] = system: K. pneumoniae ATCC MS6671; format: cell-based, Klebsiella pneumoniae; details: ATCC MS6671
Source text: as §1

[3] = system: K. pneumoniae ATCC 700603; format: cell-based, Klebsiella pneumoniae; details: ATCC 700603
Source text: as §1

[4] = system: K. pneumoniae ATCC 33495; format: cell-based, Klebsiella pneumoniae; details: ATCC 33495
Source text: as §1

[5] = system: E. coli ATCC MS8345; format: cell-based, Escherichia coli; details: ATCC MS8345
Source text: as §1
Expansion of the polymyxin macrocycle by substituting […]) offered little advantage in antimicrobial activity but was generally well tolerated although for A. baumanni and P. aeruginosa this was detrimental.

[6] = system: A. baumannii ATCC 19606; format: cell-based, Acinetobacter baumannii; details: ATCC 19606
Source text: as §1

[7] = system: P. aeruginosa ATCC 27853; format: cell-based, Pseudomonas aeruginosa; details: ATCC 27853
Source text: as §1

Row | Structure (SMILES) | MIC E. coli ATCC 25922 [1] | MIC K. pneumoniae ATCC MS6671 [2] | MIC K. pneumoniae ATCC 700603 [3] | MIC K. pneumoniae ATCC 33495 [4] | MIC E. coli ATCC MS8345 [5] | MIC A. baumannii ATCC 19606 [6] | MIC P. aeruginosa ATCC 27853 [7]
1 | CCC(=O)OCCSC[C@H](N)C(=O)N[C@@H](CCN)C(=O)N[C@H](C(=O)N[C@@H](CCN)C(=O)N[C@H]1CCCCNC(=O)[C@H]([C@@H](C)O)NC(=O)[C@H](CCN)NC(=O)[C@H](CCN)NC(=O)[C@H](CC(C)C)NC(=O)[C@@H](Cc2ccccc2)NC(=O)[C@H](CCN)NC1=O)[C@@H](C)O [Compound 23] (H-C(Ethyl(2-propionyloxy))[Dab]T[Dab]K[Dab][dF]L[Dab][Dab]T; lactam 5-C) | 4 µg/mL (≈ 3.09 µM) | >32 µg/mL | >32 µg/mL | 4 µg/mL (≈ 3.09 µM) | >32 µg/mL | >32 µg/mL | >32 µg/mL
2 | CCC(=O)OCCSC[C@H](N)C(=O)N[C@@H](CCN)C(=O)N[C@H](C(=O)N[C@@H](CCN)C(=O)N[C@H]1CCNC(=O)[C@H]([C@@H](C)O)NC(=O)[C@H](CCN)NC(=O)[C@H](CCN)NC(=O)[C@H](CSCCOC(=O)C(C)(C)C)NC(=O)[C@@H](Cc2ccccc2)NC(=O)[C@H](CCN)NC1=O)[C@@H](C)O [Compound 43] (H-C(Ethyl(2-propionyloxy))[Dab]T[Dab][Dab][Dab][dF]C(Ethyl(2-OPiv))[Dab][Dab]T; lactam 5-C) | 2 µg/mL (≈ 1.44 µM) | >32 µg/mL | 2 to 4 µg/mL | 16 µg/mL (≈ 11.6 µM) | >32 µg/mL | >32 µg/mL | >32 µg/mL
3 | CCC(C)CC(=O)OCCSC[C@@H](N)C(=O)N[C@H](C(=O)N[C@@H](CCN)C(=O)N[C@H]1CCNC(=O)[C@H]([C@@H](C)O)NC(=O)[C@H](CCN)NC(=O)[C@H](CCN)NC(=O)[C@H](CC(C)C)NC(=O)[C@@H](Cc2ccccc2)NC(=O)[C@H](CCN)NC1=O)[C@@H](C)O (stereo partly shown) [Compound 97] (H-[dC](X10)T[Dab][Dab][Dab][dF]L[Dab][Dab]T; lactam 4-C) | 1 µg/mL (≈ 0.827 µM) | >32 µg/mL | 2 µg/mL (≈ 1.65 µM) | 1 µg/mL (≈ 0.827 µM) | 16 µg/mL (≈ 13.2 µM) | 4 µg/mL (≈ 3.31 µM) | 2 µg/mL (≈ 1.65 µM)
4 | CCCC(=O)OCCSC[C@@H]1NC(=O)[C@@H](Cc2ccccc2)NC(=O)[C@H](CCN)NC(=O)[C@@H](NC(=O)[C@H](CCN)NC(=O)[C@@H](NC(=O)[C@H](CCN)NC(=O)[C@@H](N)CSCCOC(=O)CCC)[C@@H](C)O)CCNC(=O)[C@H]([C@@H](C)O)NC(=O)[C@H](CCN)NC(=O)[C@H](CCN)NC1=O [Compound 36] (H-C(Ethyl(2-butanoyloxy))[Dab]T[Dab][Dab][Dab][dF]C(Ethyl(2-butanoyloxy))[Dab][Dab]T; lactam 5-C) | 0.25 µg/mL (≈ 0.181 µM) | >32 µg/mL | 0.25 to 0.5 µg/mL | 0.25 to 0.5 µg/mL | 32 µg/mL (≈ 23.1 µM) | 16 µg/mL (≈ 11.6 µM) | 16 µg/mL (≈ 11.6 µM)

Reference: patent US20250282827A1, “LIPIDATED POLYMYXIN ANALOGUES” (priority 2021, published 2025)
